Literature values as cited in patent US8273706B2, “Isobarically labeled analytes and fragment ions derived therefrom” (DH Technologies Development Pte. Ltd., priority 2004, dated 2012).

Conditions: alcohol (leaving group) whose trifluoroacetate ester forms the active ester of N-methyl piperazine acetic acid

Row | Structure (SMILES) | pKa
1 | O=[N+]([O-])c1cccc(O)c1 [3-NP, 3-nitrophenol] | 8.33
2 | O=C1CCCN1O [NHP, N-hydroxypyrrolidinone] | 9.38
3 | Oc1c(Cl)c(Cl)c(Cl)c(Cl)c1Cl [Pcp, pentachlorophenol] | 4.68

Results, then the molecule that gave them:

Row | pKa | Structure (SMILES)
4 | 7.78 | O=c1c2ccccc2nnn1O [Dhbt, 3-hydroxy-1,2,3-benzotriazine-4(3H)-one]
5 | 7.80 | O=C1CCC(=O)N1O [NHS, N-hydroxysuccinimide]
